Molecular target: T1, human 8-oxoguanine DNA glycosylase-1 (hOGG1) (Homo sapiens, UniProt O15527)
T1 construct: gene OGG1
Assay: fluorescence-based 8-oxo-Gua duplex oligodeoxynucleotide incision assay with purified hOGG1; also GC-MS/MS of lesion excision from genomic DNA
Format: biochemical

T1 sequence (O15527 whole entry): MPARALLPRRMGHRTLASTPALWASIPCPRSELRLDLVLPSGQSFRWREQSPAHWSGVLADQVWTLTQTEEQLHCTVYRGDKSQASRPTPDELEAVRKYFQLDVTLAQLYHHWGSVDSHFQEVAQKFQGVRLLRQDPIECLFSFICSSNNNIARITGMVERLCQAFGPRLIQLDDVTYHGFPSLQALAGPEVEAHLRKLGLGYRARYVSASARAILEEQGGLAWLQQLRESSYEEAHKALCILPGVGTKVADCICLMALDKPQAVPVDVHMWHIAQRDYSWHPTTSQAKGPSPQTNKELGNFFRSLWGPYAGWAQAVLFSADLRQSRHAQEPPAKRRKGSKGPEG

**Q.** Which IC50 does the source give for `O=C(Nc1ccc(I)cc1)N1CCC(n2c(=O)[nH]c3c(Br)cccc32)CC1` [TH5487, 4-(4-bromo-2-oxo-3H-benzimidazol-1-yl)-N-(4-iodophenyl)piperidine-1-carboxamide] here?
**A.** Its IC50 is 0.8 µM.
